Measured values taken from US10798941B2, “Microbiocidal oxadiazole derivatives” (SYNGENTA PARTICIPATIONS AG, priority 2016, dated 2020).

Legend:
[1] = tested on: Puccinia recondita f. Sp. Tritici; experiment: Puccinia recondita f. sp. tritici / wheat / leaf disc curative (brown rust); assay type: in vivo; conditions: foliar, 144 h, 200 ppm in the applied formulation, wheat leaf segments cv. Kanzler, applied 1 day after inoculation, assessed 6 to 8 days after application, vs untreated, read-out: disease control
Experimental: (§1) Leaf disks or leaf segments of various plant species are cut from plants grown in a greenhouse. The cut leaf disks or segments are placed in multiwell plates (24-well format) onto water agar. The leaf disks are sprayed with a test solution before (preventative) or after (curative) inoculation. Compounds to be tested are prepared as DMSO solutions (max. 10 mg/ml) which are diluted to the appropriate concentration with 0.025% Tween20 just before spraying. The inoculated leaf disks or segments are incubated under defined conditions (temperature, relative humidity, light, etc.) according to the respective test system. A single evaluation of disease level is carried out 3 to 14 days after inoculation, depending on the pathosystem. Percent disease control relative to the untreated check leaf disks or segments is then calculated.
Wheat leaf segments cv. Kanzler are placed on agar in multiwell plates (24-well format). The leaf segments are then inoculated with a spore suspension of the fungus. Plates were stored in darkness at 19° C. and 75% relative humidity. The formulated test compound diluted in water was applied 1 day after inoculation. The leaf segments were incubated at 19° C. and 75% relative humidity under a light regime of 12 hours light/12 hours darkness in a climate cabinet and the activity of a compound was assessed as percent disease control compared to untreated when an appropriate level of disease damage appears in untreated check leaf segments (6 to 8 days after application).
(§2) The following compounds at 200 ppm in the applied formulation give at least 80% disease control in this test when compared to untreated control leaf disks under the same conditions, which show extensive disease development.

[2] = tested on: Glomerella Lagenarium (Colletotrichum Lagenarium); experiment: Glomerella lagenarium (Colletotrichum lagenarium) liquid culture / cucumber / preventative (anthracnose); assay type: cell-based; conditions: Colletotrichum orbiculare; 20 ppm in the applied formulation; liquid culture in PDB, 24° C., inhibition of growth measured photometrically 3 to 4 days after application, vs untreated; read-out: disease control
In short: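 Conidia from cryogenic storage were mixed into potato dextrose broth. This was added to compound diluted from DMSO into 0.025% Tween20, tested at 20 ppm. Plates were incubated in the dark at 24 °C and 96% relative humidity, and growth was read photometrically after 2–7 days as % activity versus untreated check.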

[3] = tested on: Puccinia recondita f. Sp. Tritici; experiment: Puccinia recondita f. sp. tritici / wheat / leaf disc preventative (brown rust); assay type: in vivo; conditions: foliar, 168 h, 200 ppm in the applied formulation, wheat leaf segments cv. Kanzler, preventative, inoculated 1 day after application, assessed 7 to 9 days after application, vs untreated, read-out: disease control
Experimental: as §1
Wheat leaf segments cv. Kanzler were placed on agar in multiwell plates (24-well format) and sprayed with the formulated test compound diluted in water. The leaf disks were inoculated with a spore suspension of the fungus 1 day after application. The inoculated leaf segments were incubated at 19° C. and 75% relative humidity (rh) under a light regime of 12 hours light/12 hours darkness in a climate cabinet and the activity of a compound was assessed as percent disease control compared to untreated when an appropriate level of disease damage appears in untreated check leaf segments (7 to 9 days after application).
as §2

Fc1cc(-c2noc(C(F)(F)F)n2)ccc1Cn1cc(Cl)cn1 [Compound 1.128, 3-[4-[(4-chloropyrazol-1-yl)methyl]-3-fluoro-phenyl]-5-(trifluoromethyl)-1,2,4-oxadiazole]
≥ 80%: pest or weed control at 200 ppm [1] | inhibition of growth at 20 ppm [2] | pest or weed control at 200 ppm [3]

Fc1cc(-c2noc(C(F)(F)F)n2)ccc1Cn1cnc(Br)c1 [Compound 1.120, 3-[4-[(4-bromoimidazol-1-yl)methyl]-3-fluoro-phenyl]-5-(trifluoromethyl)-1,2,4-oxadiazole]
≥ 80%: pest or weed control at 200 ppm [1] | inhibition of growth at 20 ppm [2] | pest or weed control at 200 ppm [3]

CCOC(=O)c1c(C)ncn1Cc1ccc(-c2noc(C(F)(F)F)n2)cc1 [Compound 1.80, ethyl 5-methyl-3-[[4-[5-(trifluoromethyl)-1,2,4-oxadiazol-3-yl]phenyl]methyl]imidazole-4-carboxylate]
≥ 80%: pest or weed control at 200 ppm [1] | inhibition of growth at 20 ppm [2] | pest or weed control at 200 ppm [3]

FC(F)(F)c1cnn(Cc2ccc(-c3noc(C(F)(F)F)n3)cc2)c1 [Compound 1.55, 5-(trifluoromethyl)-3-[4-[[4-(trifluoromethyl)pyrazol-1-yl]methyl]phenyl]-1,2,4-oxadiazole]
≥ 80%: pest or weed control at 200 ppm [1] | inhibition of growth at 20 ppm [2] | pest or weed control at 200 ppm [3]

O=Cc1cccn1Cc1ccc(-c2noc(C(F)(F)F)n2)cc1 [Compound 1.62, 1-[[4-[5-(trifluoromethyl)-1,2,4-oxadiazol-3-yl]phenyl]methyl]pyrrole-2-carbaldehyde]
≥ 80%: pest or weed control at 200 ppm [1] | inhibition of growth at 20 ppm [2] | pest or weed control at 200 ppm [3]

Cn1c(=O)c2c(ncn2Cc2ccc(-c3noc(C(F)(F)F)n3)cc2)n(C)c1=O [Compound 1.81, 1,3-dimethyl-7-[[4-[5-(trifluoromethyl)-1,2,4-oxadiazol-3-yl]phenyl]methyl]purine-2,6-dione]
≥ 80%: pest or weed control at 200 ppm [1] | inhibition of growth at 20 ppm [2] | pest or weed control at 200 ppm [3]

COC(=O)c1cncn1Cc1ccc(-c2noc(C(F)(F)F)n2)cc1 [Compound 1.89, methyl 3-[[4-[5-(trifluoromethyl)-1,2,4-oxadiazol-3-yl]phenyl]methyl]imidazole-4-carboxylate]
≥ 80%: pest or weed control at 200 ppm [1] | inhibition of growth at 20 ppm [2] | pest or weed control at 200 ppm [3]

FC(F)(F)c1nc(-c2ccc(Cn3cnc(Cl)c3Cl)nc2)no1 [Compound 1.137, 3-[6-[(4,5-dichloroimidazol-1-yl)methyl]-3-pyridyl]-5-(trifluoromethyl)-1,2,4-oxadiazole]
≥ 80%: pest or weed control at 200 ppm [1] | inhibition of growth at 20 ppm [2] | pest or weed control at 200 ppm [3]

Cc1cn(Cc2ccc(-c3noc(C(F)(F)F)n3)cc2F)cn1 [Compound 1.124, 3-[3-fluoro-4-[(4-methylimidazol-1-yl)methyl]phenyl]-5-(trifluoromethyl)-1,2,4-oxadiazole]
≥ 80%: pest or weed control at 200 ppm [1] | inhibition of growth at 20 ppm [2] | pest or weed control at 200 ppm [3]

COC(=O)c1ncn(Cc2ccc(-c3noc(C(F)(F)F)n3)cn2)c1C(=O)OC [Compound 1.133, dimethyl 1-[[5-[5-(trifluoromethyl)-1,2,4-oxadiazol-3-yl]-2-pyridyl]methyl]imidazole-4,5-dicarboxylate]
≥ 80%: pest or weed control at 200 ppm [1] | inhibition of growth at 20 ppm [2] | pest or weed control at 200 ppm [3]

COc1ccc(Cc2ccc(-c3noc(C(F)(F)F)n3)cc2)cn1 [Compound 1.254, 3-[4-[(6-methoxy-3-pyridyl)methyl]phenyl]-5-(trifluoromethyl)-1,2,4-oxadiazole]
≥ 80%: pest or weed control at 200 ppm [1] | inhibition of growth at 20 ppm [2] | pest or weed control at 200 ppm [3]

FC(F)(F)c1nc(-c2ccc(Cn3cc(Cl)cn3)cc2)no1 [Compound 1.67, 3-[4-[(4-chloropyrazol-1-yl)methyl]phenyl]-5-(trifluoromethyl)-1,2,4-oxadiazole]
≥ 80%: pest or weed control at 200 ppm [1] | inhibition of growth at 20 ppm [2] | pest or weed control at 200 ppm [3]
